{"source": "patent US20090306093A1", "about": "“METHOD FOR TREATING PATIENT HAVING BENIGN PROSTATE HYPERPLASIA” (KAOHSIUNG MEDICAL UNIVERSITY, priority 2008, published 2009)", "key": {"[1]": {"tested_on": "phenylephrine (10 μM) pre-contracted rat isolated prostate", "experiment": "Relaxation of phenylephrine pre-contracted rat isolated prostate strips (isometric tension)", "procedure": "The rat isolated prostate tissue was prepared as previously described with modifications^[10]. Briefly, Wistar rats (300-400 g) were killed with pentobarbital sodium (30 mg/kg) and the ventral part of their prostates were quickly excised. […] O2 and 5% CO2.\nIsometric tension was recorded with a force displacement transducer (UGO BASILE, Model 7004, Italy). After the equilibration period, the strips were primed twice by adding 10 μM of the agonist, phenylephrine, to reach 80-100% of maximum contraction. […] The relaxation on rat prostate by KMUP-1 (0.01-100 μM) and tamsulosin (0.001 nM-100 μM) were also tested by their combination with sildenafil (0.1 μM), respectively. In isolated prostate strips, while stable constriction to phenylephrine was reached, sildenafil (0.1 μM) was pre-incubation for 30 minutes, before the cumulative addition of KMUP-1 (0.01-100 μM) or tamsulosin (0.001 nM-100 μM) to isolated prostate strips. In another experiment, to examine the possible mechanism of action of KMUP-1, rat prostates were pretreated with ODQ (1H-[1,2,4]oxadiazolo[4,3-a]quinoxalin-1-one, 10 μM, sGC inhibitor), RP-8pCPT-cGMPs (10 μM, PKG inhibitor), glibenclamide (10 μM, KATP channel blocker), 4-AP (4-aminopyridine, 100 μM, voltage-dependent K^+ channel blocker), apamin (1 μM, Ca^2+-dependent K^+ channel blocker) and charybdotoxin (ChTX) (0.1 μM, Ca^2+-dependent K^+ channel blocker) for 30 minutes before addition of KMUP-1 (100 μM)."}, "PDE5A": {"tested_on": "PDE5A", "experiment": "Western blot of PDE5A expression in rat prostate", "conditions": "KMUP-1 10-100 μM", "procedure": "Prostate strips were incubated with KMUP-1 (10-100 μM), sildenafil (100 μM) and zaprinast (100 μM) in 10 mL Tyrode solution aerated with 95% O2 and 5% CO2 for 1 hour. To examine the possible mechanisms of KMUP-1 action, the rat prostate were pretreated with ODQ (10 μM), SQ22536 (10 μM) and RP-8pCPT-cGMPs (10 μM) for 30 minutes prior to the addition of KMUP-1 (100 μM).\nIn order to examine the expression of Rho kinase in prostate, the prostate strips were pre-incubated with phenylephrine (10 μM) for 30 minutes. After a pre-treatment of phenylephrine, KMUP-1 (10-100 μM) and Y-27632 (10 μM) were further incubated for 30 minutes. After the incubation time, the prostate were extracted with protein extraction reagent (Pierce Biotechnology, Inc., Rockford, Ill., USA.). The PZ-HPV-7 cells were incubated with and without KMUP-1 (0.1-10 μM) at 30 minutes, 8 and 24 hours. They were then washed rapidly with ice-cold PBS, incubated with protein extraction reagent, and scraped from the plates. The prostate tissues and cells were sonicated three times for 10 second each time and centrifuged at 13,000 rpm at 4° C. for 30 minutes. The protein concentrations of supernatants were determined, using bovine serum albumin as the standard. […] The intensity of the bands was measured by densitometry."}, "[2]": {"tested_on": "PZ-HPV-7 human prostatic epithelial cells", "experiment": "Cell proliferation, MTT assay", "format": "cell-based", "procedure": "PZ-HPV-7, a human prostate epithelial cell line derived from normal peripheral zone tissue and transfected with human papillomavirus type 18, was obtained from the American Type Culture Collection (ATCC). Cells were grown in K-SFM medium supplemented with 100 U/mL penicillin, […], streptomycin 5 ng/ml, EGF human recombinant and 50 µg/mL BPE in 75-cm^2 flasks at 37° C. in a humidified atmosphere of […]. The culture medium was renewed every 2 days and cells were sub-cultured every 6 days. For the experiments, cells were seeded in 24-well plates at a density of 1×10^4 cells/well. After 24 hours and 48 hours, when cells were 80% confluent, KMUP-1 (1-100 μM) was added to the 24-well plates. Cell proliferation was measured using MTT assay (3-[4,5-dimethylthiazol-2-yl]-2,5-diphenyl-tetrazolium bromide, Sigma). The trypan blue […] exclusion assay was performed to determine the proportion of living and dead cells in 24 hours and 48 hours after treatment. After 24 hours and 48 hours of treatment with KMUP-1 (1-100 μM), attached cells were collected by trypsinization. Cells were counted in a hemocytometer using equal volume of cell suspension and trypan blue solution (0.2% in PBS)."}, "cAMP": {"tested_on": "cAMP", "experiment": "Determination of cAMP in rat isolated prostate (radioimmunoassay)", "conditions": "for cAMP levels: 1 hour", "procedure": "Isolated prostate strips from Wistar rats were prepared to determine prostate levels of cGMP and cAMP. Briefly, prostate strips were respectively incubated with KMUP-1 (10-100 μM), sildenafil (100 μM), and zaprinast (100 μM) in 10 mL Tyrode solution aerated with 95% O2 and 5% CO2 for 1 hour. To examine the possible mechanisms of action of KMUP-1, the rat prostate was pretreated with ODQ (10 μM, sGC inhibitor) and SQ22536 (9-(tetrahydro-2-furanyl)-9H-purin-6-amine, 10 μM, adenylyl cyclase inhibitor) for 30 minutes before KMUP-1 was added. After the incubation, the prostate tissues were extracted with 1 mL of 0.1 N HCl. The extracts were then lyophilized for a further measurement of cyclic GMP or cyclic AMP of each sample, using commercially available radioimmunoassay kits (Amersham Pharmacia Biotech, Buckinghamshire, England)."}}, "note": "Values joined by “and” are separate entries in the source; they are usually repeats but may differ in a detail not shown here. Equal values may be shown once.", "data": [{"compound": "Cn1c(=O)c2c(ncn2CCN2CCN(c3ccccc3Cl)CC2)n(C)c1=O", "note": "[KMUP-1, 7-[2-[4-(2-Chlorobenzene)piperazinyl]ethyl]-1,3-dimethyl xanthine]", "values": [{"measurement": "relaxation", "setting": "[1]; 10 μM, 1 hour, phenylephrine 10 μM pre-contracted", "value": "110.00±5.09", "unit": "%"}, {"measurement": "relaxation activity", "setting": "[1]; 100 μM combined with sildenafil 0.1 μM", "value": "190.00±10.14", "unit": "%"}, {"measurement": "relaxation ability", "setting": "[1]; 100 μM, phenylephrine 10 μM pre-contracted", "value": "179.00±5.35% and 179.00±5.3%"}, {"measurement": "relaxation", "setting": "[1]; KMUP-1 100 μM, pre-incubation with ODQ 10 μM", "value": "112.50±7.84", "unit": "%"}, {"measurement": "relaxation", "setting": "[1]; KMUP-1 100 μM, pre-incubation with RP-8pCPT-cGMPs 10 μM", "value": "128.00±4.41", "unit": "%"}, {"measurement": "relaxation", "setting": "[1]; KMUP-1 100 μM, with 4-AP 100 μM", "value": "122.00±3.74", "unit": "%"}, {"measurement": "relaxation", "setting": "[1]; KMUP-1 100 μM, with apamin 1 μM", "value": "126.00±9.09", "unit": "%"}, {"measurement": "relaxation", "setting": "[1]; KMUP-1 100 μM, with charybdotoxin 0.1 μM", "value": "138.00±7.01", "unit": "%"}, {"measurement": "relaxation", "setting": "[1]; KMUP-1 100 μM, with glibenclamide 10 μM", "value": "115.00±7.07", "unit": "%"}, {"measurement": "expression of PDE5A", "setting": "PDE5A", "value": "mildly inhibits"}, {"measurement": "cell growth", "setting": "[2]; 1 μM, 24 hours", "value": "82.00±3.03 % of control"}, {"measurement": "cell growth", "setting": "[2]; 1 μM, 48 hours", "value": "70.00±2.23 % of control"}, {"measurement": "cell growth", "setting": "[2]; 10 μM, 24 hours", "value": "80.03±1.52 % of control"}, {"measurement": "cell growth", "setting": "[2]; 10 μM, 48 hours", "value": "56.00±2.72 % of control"}, {"measurement": "cell growth", "setting": "[2]; 100 μM, 24 hours", "value": "79.00±1.35 % of control"}, {"measurement": "cell growth", "setting": "[2]; 100 μM, 48 hours", "value": "47.00±1.8 % of control"}, {"measurement": "cAMP levels", "setting": "cAMP; 10 μM", "value": "1.74±0.51", "unit": "pmol mg^−1 protein"}, {"measurement": "cAMP levels", "setting": "cAMP; 100 μM", "value": "2.82±0.42", "unit": "pmol mg^−1 protein"}, {"measurement": "accumulation of cAMP", "setting": "cAMP; KMUP-1 100 μM in the presence of SQ22536 10 μM", "value": "2.16±0.79", "unit": "pmol mg^−1 protein"}]}]}
